Counter-ions that a name gives are not always drawn.
What was measured:
[1] = test system: TNFα; assay: Measurement of LPS Induced-TNFα in THP-1 Cells; type: cell-based, human; conditions: Homo sapiens, THP-1; read-out: TNFalpha IC50
Description: The lipid peroxidation assay method of Ohkawa, H.; Ohishi, N.; Yaki, K. Anal. Biochem. 1979, 95, 351 was used to evaluate […]. […] […] Cells were collected and spun at 1500 g for 10 minutes. Supernatant was collected and analyzed for TNFα.
Mean Percent Inhibition of TNF-alpha by compounds of the present invention is set forth in Table B. TNF-alpha inhibition data is set forth in Table B-1. OT-551 was used in both native form and in the form of nanoparticles. […] Other nitrogenous heterocyclic species of the invention are expected to show similar improvement in efficacy when disposed in nanoparticulate form.

[2] = test system: Doxorubicin resistant SaOS2 cells; assay: Cancer cell viability (MTT) in the presence or absence of doxorubicin; type: cell-based, human; conditions: compound 50 ug/mL, 3 days

IC50 [1] | melting point | SMILES | Mean OD (×10^−3), MTT viability ([2]; Dox. 10^−6 M (+)) | Mean OD (×10^−3), MTT viability ([2]; absence of Dox. (−))
≥ 100 µM | – | CC1(C)CC(NC(=O)CCN2CCOCC2)CC(C)(C)N1O.Cl [Compound 26, N-(1-hydroxy-2,2,6,6-tetramethylpiperidin-4-yl)-3-morpholinopropanamide hydrogen chloride] | 261.50 ×10^−3 | 1056.33 ×10^−3
3 µM | – | CN1CCN(c2nsnc2OC2CC(C)(C)N(O)C(C)(C)C2)CC1.Cl.Cl [Compound 52, dihydrochloride] | – | –
≥ 100 µM | – | CC1(C)CC(c2nn[nH]n2)CC(C)(C)N1O.Cl [Compound 30, 1-hydroxy-2,2,6,6-tetramethyl-4-(2H-tetrazol-5-yl)piperidine hydrogen chloride] | 310.00 ×10^−3 | 1301.25 ×10^−3
≥ 100 µM | – | CC1(C)c2ccc(N3CCOCC3)cc2C(C)(C)N1O [Compound 66, 2-hydroxy-1,1,3,3-tetramethyl-5-morpholinoisoindoline hydrochloride] | – | –
– | 179.2 °C (dec.) | CC1(C)CC(Oc2nsnc2C#N)CC(C)(C)N1O (as salt: hydrochloride) [Compound 45] | – | –
12 µM | – | CC1(C)CC(=CC(=O)N2CCN(c3ccccc3)CC2)CC(C)(C)N1O [Compound 56, hydrochloride] | 308.75 ×10^−3 | 1153.00 ×10^−3
– | 198.1 °C (dec.) | CC1(C)CC(Oc2nsnc2N2CCN(C(=O)c3ccco3)CC2)CC(C)(C)N1O.Cl | – | –
2.4 µM | – | CC1(C)CC(CO)CC(C)(C)N1O.Cl [Compound 34, (1-hydroxy-2,2,6,6-tetramethylpiperidin-4-yl)methanol hydrogen chloride] | 302.75 ×10^−3 | 1168.25 ×10^−3
38.2 µM | – | CC1(C)CC(NC(=O)C2CC2)CC(C)(C)N1O.Cl [Compound 31, N-(1-hydroxy-2,2,6,6-tetramethylpiperidin-4-yl)cyclopropanecarboxamide hydrogen chloride] | 322.25 ×10^−3 | 1175.25 ×10^−3
– | 197 °C (dec.) | CC(C)(C)OC(=O)c1nsnc1OC1CC(C)(C)N(O)C(C)(C)C1.Cl | – | –
≥ 100 µM | – | CC1(C)CC(Oc2nsnc2N2CCOCC2)C(C)(C)N1O.Cl (stereo not shown) [Compound 32, 4-(4-(1-hydroxy-2,2,5,5-tetramethylpyrrolidin-3-yloxy)-1,2,5-thiadiazol-3-yl)morpholine hydrogen chloride] | 231.50 ×10^−3 | 985.67 ×10^−3
55.7 µM | – | CC1(C)CC(CO)C(C)(C)N1O.Cl (stereo not shown) [Compound 33, 1-hydroxy-2,2,5,5-tetramethylpyrrolidin-3-yl)methanol hydrogen chloride] | – | –
– | 155.5 °C (dec.) | CC1(C)CC(O)C(C)(C)N1O (stereo not shown) (as salt: salt) [Compound 7, 2,2,5,5-Tetramethyl-pyrrolidine-1,3-diol] | – | –
– | 183 °C (dec.) | CC1(C)CC(Nc2nc3ccccc3s2)CC(C)(C)N1O.Cl | – | –
– | 174.9 °C (dec.) | Cc1c(C)c2c(c(C)c1O)CCC(C)(C(=O)NC1CC(C)(C)N(O)C(C)(C)C1)O2.Cl (stereo not shown) | – | –
– | 160 °C (dec.) | CC1(C)CC(Oc2nc3ccccc3s2)CC(C)(C)N1O.Cl | – | –
– | 155.7 °C (dec.) | CC1(C)C=C(COc2ccccc2N2CCOCC2)C(C)(C)N1O.Cl | – | –

Further lines, the compound ahead of its results:

SMILES | IC50 [1] | melting point | Mean OD (×10^−3), MTT viability ([2]; Dox. 10^−6 M (+)) | Mean OD (×10^−3), MTT viability ([2]; absence of Dox. (−))
CC1(C)C=C(CO)C(C)(C)N1O (as salt: chloride) [Compound 8, 2,5-dihydro-2,2,5,5-tetramethyl-1-hydroxyl-1H-pyrrol-3-yl)methanol hydrogen chloride] | – | 141.9 °C (dec.) | – | –
CC1(C)C=C(CO)CC(C)(C)N1O.Cl [Compound 25, 1-hydroxy-1,2,3,6-tetrahydro-2,2,6,6-tetramethylpyridin-4-yl)methanol hydrogen chloride] | 30.9 µM | – | – | –
CC1(C)CC(Oc2nsnc2OC2CC(C)(C)N(O)C(C)(C)C2)CC(C)(C)N1O (as salt: chloride) [Compound 14, 1-hydroxyl-4-(4-(2,2,6,6-tetramethylpiperidin-1-hydroxyl-4-yloxy)-1,2,5-thiadiazol-3-yloxy)-2,2,6,6-tetramethylpiperidine bis-hydrogen chloride] | – | 216.2 °C (dec.) | – | –
CC1(C)CC(=O)C(C)(C)N1O.Cl [Compound 37, 1-hydroxy-2,2,5,5-tetramethylpyrrolidin-3-one hydrogen chloride] | ≥ 100 µM | – | 366.25 ×10^−3 | 1329.75 ×10^−3
CC1(C)CC(Oc2nsnc2N2CCN(c3ccccc3)CC2)CC(C)(C)N1O.Cl.Cl [Compound 53, 4-(4-phenylpiperazin-1-yl)-3-[(2,2,6,6-tetramethyl-1-hydroxypiperidinyl)-4-oxy]-1,2,5-thiadiazole hydrochloride] | – | – | 170.00 ×10^−3 | 1333.75 ×10^−3
COc1cc(COC2CC(C)(C)N(O)C(C)(C)C2)cc(OC)c1OC.Cl [Compound 48, 1-Hydroxyl-4-(3,4,5-trimethoxybenzyloxy)-2,2,6,6-tetramethylpiperidine hydrochloride] | – | – | 50.67 ×10^−3 | 1118.00 ×10^−3
CN1CCN(c2nsnc2OC2CC(C)(C)N(O)C(C)(C)C2)CC1.Cl.Cl [Compound 52] | – | – | 195.00 ×10^−3 | 1186.33 ×10^−3
COc1cc2c(cc1OC)CN(c1nsnc1OC1CC(C)(C)N(O)C(C)(C)C1)CC2.Cl | – | 166.9 °C (dec.) | – | –
CC1(C)C=C(c2ccc(F)cc2)CC(C)(C)N1O [Compound 62, hydrochloride] | ≥ 100 µM | – | 40.25 ×10^−3 | 184.75 ×10^−3
COc1cc(C2=CC(C)(C)N(O)C(C)(C)C2)cc(OC)c1OC.Cl [Compound 50, 1-Hydroxy-2,3,6-trihydro-4-(3,4,5-trimethoxyphenyl)-2,2,6,6-tetramethylpiperidine hydrochloride] | – | – | 54.50 ×10^−3 | 1226.33 ×10^−3
CC1(C)C(CO)=C(c2ccc(F)cc2)C(C)(C)N1O.Cl [Compound 59, (4-(4-fluorophenyl)-1-hydroxy-2,5-dihydro-2,2,5,5-tetramethyl-1H-pyrrol-3-yl)methanol hydrochloride] | – | – | 352.00 ×10^−3 | 1105.00 ×10^−3
CC1(C)C=C(CC2CNCCO2)C(C)(C)N1O.Cl.Cl (stereo not shown) [Compound 36, ((1-hydroxy-2,5-dihydro-2,2,5,5-tetramethyl-1H-pyrrol-3-yl)methyl)morpholine bis-hydrogen chloride] | 4 µM | – | 297.00 ×10^−3 | 1110.75 ×10^−3

From US20080200405A1, “Drug Resistance Reversal In Neoplastic Disease” (priority 2007, published 2008)
